Assay results taken from patent US20250019385A1, “SPIROCYCLIC ANNULATED 2-AMINO-3-CYANO THIOPHENES AND DERIVATIVES FOR THE TREATMENT OF CANCER” (Boehringer Ingelheim International GmbH, priority 2023, published 2025).
pIC50: −log10 of the molar value.

Test system: NCI-H358 cells
Test: NCI-H358 CTG proliferation assay (120 h) (NSCLC, G12C)
Format: cell-based
Conditions: Homo sapiens
Procedure: (§1) NCI-H358 cells (ATCC No. CRL-5807) are dispensed into black 384-well plates, flat and clear bottom (Greiner, PNr. 781091) at a density of 200 cells per well in 60 μl RPMI-1640 ATCC-Formulation (Gibco #A10491)+10% FCS (fetal calf serum). Cells are incubated overnight at 37° C. in a humidified tissue culture incubator at 5% CO2. Compounds (10 mM stock in DMSO) are added at logarithmic dose series using the ECHO acoustic liquid handler system (Beckman Coulter), normalizing for added DMSO and including DMSO controls. All compound treatments are performed in technical duplicates. For the TO time point measurement, untreated cells are analyzed at the time of compound addition. Plates are incubated for 120 h, and cell viability is measured using CellTiter-Glo luminescent cell viability reagent (Promega product code G7570). Viability (stated as percent of control) is defined as relative luminescence units RLU of each well divided by the RLU of cells in DMSO controls. IC50 values are determined from viability measurements by non-linear regression using a four-parameter model.
(§2) IC50 values of representative compounds according to the invention measured with these assays in the indicated cell lines are presented in Table 46.
In the case of C[C@H](Oc1nc(-c2onc3c2CCC[C@@]32CCCc3sc(N)c(C#N)c32)nc2c1n(C)c(=O)n2[C@H]1CCCOC1)[C@@H]1CCCN1C [I-11], the pIC50 was 6.41. For C[C@H](Oc1nc(-c2noc3c2CCC[C@@]32CCCc3sc(N)c(C#N)c32)nc2c1CN(c1ncccn1)[C@@]21CCOC1)[C@@H]1CCCN1C [II-7b], the pIC50 was 6.97. Work on C[C@@H]1COC[C@H](n2c(=O)n(C)c3c(O[C@@H](C)[C@@H]4CCCN4C)nc(-c4onc5c4CCC[C@@]54CCCc5sc(N)c(C#N)c54)nc32)C1 [I-44] yielded a pIC50 of 8.15. Molecule C[C@H](Oc1nc(-c2noc3c2CCC[C@@]32CCCc3sc(N)c(C#N)c32)nc2c1CN(C1COC1)C[C@]21CCOC1)[C@@H]1CC[C@H](C)N1C [II-17] has a pIC50 of 8.30. In the case of C[C@H](Oc1nc(-c2noc3c2CCC[C@@]32CCCc3sc(N)c(C#N)c32)nc2c1CN(c1ncccn1)[C@]21CCOC1)[C@@H]1CCCN1C [II-7a], the pIC50 was 7.74. Molecule C[C@H](Oc1nc(-c2noc3c2CCC[C@@]32CCCc3sc(N)c(C#N)c32)nc2c1CCC21CCOC1)[C@@H]1CCCN1C (some centres unmarked) [II-18] has a pIC50 of 7.37. C[C@H](Oc1nc(-c2noc3c2CCC[C@@]32CCCc3sc(N)c(C#N)c32)nc2c1n(C)c(=O)n2[C@H]1CO[C@@H](C)C1)[C@@H]1CCCN1C [II-5] showed a pIC50 of 9.00.

Test system: AsPC-1 cells
Test: AsPC-1 CTG proliferation assay (120 h) (pancreatic cancer, G12D)
Format: cell-based
Conditions: Homo sapiens, ASPC1
Procedure: as §1, with “AsPC-1” for “NCI-H358”, “CRL-1682)” for “No. CRL-5807)”, “500” for “200”, “RPMI” for “RPMI-1640”, “(PAN P04-18047)+10%” for “(Gibco #A10491)+10%”, “serum, HyClone, SH30084.03).” for “serum).”
as §2
With C[C@H](Oc1nc(-c2onc3c2CCC[C@@]32CCCc3sc(N)c(C#N)c32)nc2c1n(C)c(=O)n2[C@H]1CCCOC1)[C@@H]1CCCN1C [I-11] the pIC50 was 5.35. Molecule C[C@H](Oc1nc(-c2noc3c2CCC[C@@]32CCCc3sc(N)c(C#N)c32)nc2c1CN(c1ncccn1)[C@@]21CCOC1)[C@@H]1CCCN1C [II-7b] has a pIC50 of 6.20. C[C@@H]1COC[C@H](n2c(=O)n(C)c3c(O[C@@H](C)[C@@H]4CCCN4C)nc(-c4onc5c4CCC[C@@]54CCCc5sc(N)c(C#N)c54)nc32)C1 [I-44] gave a pIC50 of 6.57. Work on C[C@H](Oc1nc(-c2noc3c2CCC[C@@]32CCCc3sc(N)c(C#N)c32)nc2c1CN(C1COC1)C[C@]21CCOC1)[C@@H]1CC[C@H](C)N1C [II-17] yielded a pIC50 of 6.63. In the case of C[C@H](Oc1nc(-c2noc3c2CCC[C@@]32CCCc3sc(N)c(C#N)c32)nc2c1CN(c1ncccn1)[C@]21CCOC1)[C@@H]1CCCN1C [II-7a], the pIC50 was 6.51. C[C@H](Oc1nc(-c2noc3c2CCC[C@@]32CCCc3sc(N)c(C#N)c32)nc2c1CCC21CCOC1)[C@@H]1CCCN1C (some centres unmarked) [II-18] gave a pIC50 of 6.50. C[C@H](Oc1nc(-c2noc3c2CCC[C@@]32CCCc3sc(N)c(C#N)c32)nc2c1n(C)c(=O)n2[C@H]1CO[C@@H](C)C1)[C@@H]1CCCN1C [II-5] gave a pIC50 of 7.40.

Test system: SK-CO-1 cells
Test: SK-CO-1 CTG proliferation assay (120 h) (CRC, G12V)
Format: cell-based
Conditions: Homo sapiens
Procedure: as §1, with “SK—CO-1” for “NCI-H358”, “HTB-39)” for “No. CRL-5807)”, “500” for “200”, “EMEM (Sigma M5650)+10%” for “RPMI-1640 ATCC-Formulation (Gibco #A10491)+10%”, “serum, HyClone, SH30084.03).” for “serum).”
as §2
With C[C@H](Oc1nc(-c2onc3c2CCC[C@@]32CCCc3sc(N)c(C#N)c32)nc2c1n(C)c(=O)n2[C@H]1CCCOC1)[C@@H]1CCCN1C [I-11] the pIC50 was 6.35. C[C@H](Oc1nc(-c2noc3c2CCC[C@@]32CCCc3sc(N)c(C#N)c32)nc2c1CN(c1ncccn1)[C@@]21CCOC1)[C@@H]1CCCN1C [II-7b] showed a pIC50 of 6.81. In the case of C[C@@H]1COC[C@H](n2c(=O)n(C)c3c(O[C@@H](C)[C@@H]4CCCN4C)nc(-c4onc5c4CCC[C@@]54CCCc5sc(N)c(C#N)c54)nc32)C1 [I-44], the pIC50 was 8.30. In the case of C[C@H](Oc1nc(-c2noc3c2CCC[C@@]32CCCc3sc(N)c(C#N)c32)nc2c1CN(C1COC1)C[C@]21CCOC1)[C@@H]1CC[C@H](C)N1C [II-17], the pIC50 was 8.30. Work on C[C@H](Oc1nc(-c2noc3c2CCC[C@@]32CCCc3sc(N)c(C#N)c32)nc2c1CN(c1ncccn1)[C@]21CCOC1)[C@@H]1CCCN1C [II-7a] yielded a pIC50 of 7.49. Molecule C[C@H](Oc1nc(-c2noc3c2CCC[C@@]32CCCc3sc(N)c(C#N)c32)nc2c1CCC21CCOC1)[C@@H]1CCCN1C (some centres unmarked) [II-18] has a pIC50 of 7.10. With C[C@H](Oc1nc(-c2noc3c2CCC[C@@]32CCCc3sc(N)c(C#N)c32)nc2c1n(C)c(=O)n2[C@H]1CO[C@@H](C)C1)[C@@H]1CCCN1C [II-5] the pIC50 was 9.00.

Test system: NCI-H727 cells
Test: NCI-H727 CTG proliferation assay (120 h) (lung cancer, G12V)
Format: cell-based
Conditions: Homo sapiens
Procedure: as §1, with “NCI-H727” for “NCI-H358”, “CRL-5815)” for “CRL-5807)”, “500” for “200”, “RPMI” for “RPMI-1640”, “(PAN P04-18047)+10%” for “(Gibco #A10491)+10%”, “serum, HyClone, SH30084.03).” for “serum).”
as §2
In the case of C[C@H](Oc1nc(-c2onc3c2CCC[C@@]32CCCc3sc(N)c(C#N)c32)nc2c1n(C)c(=O)n2[C@H]1CCCOC1)[C@@H]1CCCN1C [I-11], the pIC50 was 6.30. With C[C@@H]1COC[C@H](n2c(=O)n(C)c3c(O[C@@H](C)[C@@H]4CCCN4C)nc(-c4onc5c4CCC[C@@]54CCCc5sc(N)c(C#N)c54)nc32)C1 [I-44] the pIC50 was 8.70. Molecule C[C@H](Oc1nc(-c2noc3c2CCC[C@@]32CCCc3sc(N)c(C#N)c32)nc2c1CN(C1COC1)C[C@]21CCOC1)[C@@H]1CC[C@H](C)N1C [II-17] has a pIC50 of 8.70.

Test system: not listed separately
Test: Metabolic (microsomal) stability assay, human liver microsomes (HLM)
Format: in vitro ADME
Conditions: 1 μM test compound, predicted clearance as percent of liver blood flow
Procedure: The metabolic degradation of the test compound is assayed at 37° C. with pooled liver microsomes (mouse (MLM), rat (RLM) or human (HLM)). The final incubation volume of 48 μL per time point contains TRIS buffer (pH 7.5; 0.1 M), magnesium chloride (6.5 mM), microsomal protein (0.5 mg/mL for mouse/rat, 1 mg/mL for human specimens) and the test compound at a final concentration of 1 μM. Following a short preincubation period at 37° C., the reactions are initiated by addition of 12 μL beta-nicotinamide adenine dinucleotide phosphate, reduced form (NADPH, 10 mM) and terminated by transferring an aliquot into solvent after different time points (0, 5, 15, 30, 60 min). Additionally, the NADPH-independent degradation is monitored in incubations without NADPH, terminated at the last time point by addition of acetonitrile. The quenched incubations are pelleted by centrifugation (4,000 rpm, 15 min). An aliquot of the supernatant is assayed by LC-MS/MS to quantify the concentration of parent compound in the individual samples.
In vitro intrinsic clearance (CLint,in vitro) is calculated from the time course of the disappearance of the test drug during the microsomal incubation. Each plot is fitted to the first-order elimination rate constant as C(t)=C0*exp(−ke*t), where C(t) and C0 are the concentration of unchanged test drug at incubation time t and that at preincubation and ke is the disappearance rate constant of the unchanged drug. Subsequently, CLint, in vitro (μL min^−1·amount protein) values are converted to predicted CLint,in vivo (mL min^−1·kg^−1) from incubation parameters according to the equation CLint, in vivo=CLint, in vitro×(incubation volume (mL)/amount protein (mg))×(amount protein (mg)/g liver tissue)×(liver weight/body wt.).
For better across species comparison the predicted clearance is expressed as percent of the liver blood flow [% QH] (mL min^−1·kg^−1) in the individual species. In general, high stability (corresponding to low % QH) of the compounds across species is desired.
With C[C@H](Oc1nc(-c2onc3c2CCC[C@@]32CCCc3sc(N)c(C#N)c32)nc2c1n(C)c(=O)n2[C@H]1CO[C@@H](C)C1)[C@@H]1CC[C@H](C)N1C [I-50] the “HLM QH” value was 35%. With C[C@H](Oc1nc(-c2noc3c2CCC[C@@]32CCCc3sc(N)c(C#N)c32)nc2c1CN(c1ncccn1)[C@@]21CCOC1)[C@@H]1CCCN1C [II-7b] the “HLM QH” value was <24%. In the case of C[C@H](Oc1nc(-c2noc3c2CCC[C@@]32CCCc3sc(N)c(C#N)c32)nc2c1CN(c1ncccn1)[C@]21CCOC1)[C@@H]1CCCN1C [II-7a], the “HLM QH” value was <24%. In the case of CO[C@H]1CCN(C)[C@@H]1[C@H](C)Oc1nc(-c2onc3c2CCC[C@@]32CCCc3sc(N)c(C#N)c32)nc2c1n(C)c(=O)n2[C@H]1COC[C@@H](C)C1 [I-51], the “HLM QH” value was 74%. With CO[C@@H]1C[C@@H]([C@H](C)Oc2nc(-c3onc4c3CCC[C@@]43CCCc4sc(N)c(C#N)c43)nc3c2n(C)c(=O)n3[C@H]2COC[C@@H](C)C2)N(C)C1 [I-52] the “HLM QH” value was 46%. For C[C@H](Oc1nc(-c2noc3c2CCC[C@@]32CCCc3sc(N)c(C#N)c32)nc2c1CCC21CCOC1)[C@@H]1CCCN1C (some centres unmarked) [II-18], the “HLM QH” value was 36%. With C[C@H](Oc1nc(-c2onc3c2CCC[C@@]32CCCc3sc(N)c(C#N)c32)nc2c1n(C)c(=O)n2[C@H]1CO[C@@H](C)C1)[C@@H]1CCCN1C [I-47] the “HLM QH” value was <24%. For C[C@H](Oc1nc(-c2noc3c2CCC[C@@]32CCCc3sc(N)c(C#N)c32)nc2c1n(C)c(=O)n2[C@H]1CO[C@@H](C)C1)[C@@H]1CCCN1C [II-5], the “HLM QH” value was 36%.
